Reference: patent publication US10172879B2, “Nanocomplexes for co-delivering a drug and siRNA and uses thereof” (D.R.NANO CO., LTD, priority 2015, dated 2019)
d = 2'-deoxy (DNA)

Assay: Serum stability assay (50% serum, 37° C., gel electrophoresis)
Format: in vitro ADME, bovine
Settings: 50% serum media at 37° C., 0-24 h; HMplex N/P=4
Experimental: In vitro cytotoxicity studies of HMplexes were performed against normal cells (MRC-5 and NIH-3T3) and cancer cells (MDA-MB-231) using the colorimetric MTT assay. Cells were treated with HMplexes at various concentrations for 4 h and then incubated in a serum-free medium for another 44 h after washing twice with cold PBS (pH 7.4). After washing with PBS, the cells were treated with MTT reagents and the absorbance at 540 nm was measured with a microplate reader (Spectra Max 340, Molecular Devices, Sunnyvale, Calif., USA). The complex stability of HMplexes was evaluated by a heparin polyanion competition assay and a serum stability assay. For the heparin polyanion competition assay, HMplexes containing 1 μg siRNA were incubated with varying amounts of heparin (0-200 μg) for 30 min at room temperature and then subjected to 2% agarose gel electrophoresis. The decomplexed siRNA was detected with SYBR Gold staining. For serum stability studies, HMplexes or naked siRNA were incubated in 50% FBS/PBS (pH 7.4) at 37° C. for predetermined time periods (0-24 h). Aliquots from each sample were analyzed by 2% agarose gel electrophoresis and visualized with SYBR Gold.

free siRNA: Custom Bcl-2 siRNA (sense Seq ID No. 1-dTdT; antisense Seq ID No. 2-dTdT), uncomplexed (sense GUACAUCCAUUAUAAGCUG; antisense CAGCUUAUAAUGGAUGUAC; RNA, 3' dTdT, backbone not given here)
degradation of siRNA in serum: completely disappeared at 24 h
